Assay results taken from article PMC10879502, “Linking ATP and allosteric sites to achieve superadditive binding with bivalent EGFR kinase inhibitors” (Communications Chemistry, 2024).

What was measured:
[1] = target: T1, EGFR WT, cytoplasmic domain (669–1210) (Homo sapiens, UniProt P00533); experiment: Time-dependent kinase inhibition assay (Sox-based substrate); type: biochemical; conditions: enzyme 2.0 nM, 1 mM ATP
T1 construct: EGFR WT, cytoplasmic domain (669–1210), GST-tagged, Carna; purchased Carna 08-115
Experimental: (§1) Biochemical assays were performed with commercially available EGFR WT, cytoplasmic domain (669–1210), GST-tagged, Carna (Cat#/Lot#: 08-115/21CBS-0127H), EGFR [L858R], cytoplasmic domain (668-end), GST-tagged, SignalChem (Cat#/Lot#: E10-122BG/D2411-4), EGFR [T790M/L858R] cytoplasmic domain (669–1210), GST-tagged, Carna (Cat#/Lot#: 08-510/12CBS-0765M). […] BSA was not included in this experiment to prevent interference with irreversible inhibitor characterization via off-target binding. All reactions were run for 240 min at 30 °C. Time-dependent fluorescence from the Sox-based substrate was monitored in PerkinElmer ProxiPlate-384 Plus, white shallow well microplates (Cat. #6008280) Biotek Synergy Neo 2 microplate reader with excitation (360 nm) and emission (485 nm) wavelengths. 4 was dosed between 0 and 10 µM in 24-point curves with 1.5-fold dilutions. Fluorescence, determined with identical reactions but lacking purified enzyme or crude cell lysate was subtracted from the total fluorescence signal for each time point, with both determined in duplicate, to obtain corrected relative fluorescence units (RFU). Corrected RFU values then were plotted vs. time and the reaction velocity for the first ~40 min (initial reaction rates) was determined from the slope using GraphPad Prism (La Jolla, CA) with units of RFU/min.

[2] = target: T2, EGFR [L858R], cytoplasmic domain (668-end) (Homo sapiens, UniProt P00533, L858R); experiment: as above; type: biochemical; conditions: LR, enzyme 1.0 nM, 1 mM ATP
T2 construct: EGFR [L858R], cytoplasmic domain (668-end), GST-tagged, SignalChem; purchased SignalChem E10-122BG
Experimental: as §1

[3] = target: T3, EGFR [T790M/L858R] cytoplasmic domain (669–1210) (Homo sapiens, UniProt P00533, L858R/T790M); experiment: as above; type: biochemical; conditions: LRTM, enzyme 2.0 nM, 1 mM ATP
T3 construct: EGFR [T790M/L858R] cytoplasmic domain (669–1210), GST-tagged, Carna; purchased Carna 08-510
Experimental: as §1

[4] = system: H1975 cells (L858R/T790M); experiment: MTT antiproliferative activity assay; type: cell-based, human
Experimental: (§2) Cells were dosed with inhibitors to a final DMSO 0.5% in triplicate for 37 °C for 72 h. Cellular inhibition of growth was assessed by MTT viability assay according to the manufactures protocol (OZ Biosciences). […] Ba/F3 cells were all cultured in RPMI1640 media with 10% fetal bovine serum and 1% penicillin and streptomycin. The Ba/F3 cell lines were tested negative for Mycoplasma using Mycoplasma Plus PCR Primer Set (Agilent) and were passaged and/or used for no longer than 4 weeks for all experiments. Assay reagents were purchased from MilliporeSigma (Cat# R7017-5G). Ba/F3 cells were plated and treated with increasing concentrations of inhibitors in triplicate for 72 h. Compounds were dispensed using the Tecan D300e Digital Dispenser. […] All experiments were repeated at least 3 times and values were reported as an average with standard deviation.

[5] = system: HCC827 cells (exon 19 del); experiment: MTT antiproliferative activity assay; type: cell-based, human
Experimental: as §2

[6] = target: T4, ABL1(F317L)-nonphosphorylated (Homo sapiens, UniProt P00519, F317L); experiment: KINOMEscan; type: binding; conditions: 1 μM
T4 construct: purchased Eurofins DiscoverX Corporation

[7] = target: T5, ABL1(M351T)-phosphorylated (Homo sapiens, UniProt P00519, M351T); experiment: KINOMEscan; type: binding; conditions: 1 μM
T5 construct: purchased Eurofins DiscoverX Corporation

ACVR2B = ACVR2B (Homo sapiens, UniProt Q13705); experiment: KINOMEscan; type: binding; conditions: 1 μM
AXL = AXL (Homo sapiens, UniProt P30530); experiment: KINOMEscan; type: binding; conditions: 1 μM
CDK5 = CDK5 (Homo sapiens, UniProt Q00535); experiment: KINOMEscan; type: binding; conditions: 1 μM
CSK = CSK (Homo sapiens, UniProt P41240); experiment: KINOMEscan; type: binding; conditions: 1 μM
DAPK2 = target: T6, DAPK2 (Homo sapiens, UniProt Q9UIK4); experiment: KINOMEscan; type: binding; conditions: 1 μM
T6 construct: purchased Eurofins DiscoverX Corporation

FES = FES (Homo sapiens, UniProt P07332); experiment: KINOMEscan; type: binding; conditions: 1 μM
FGFR3 = FGFR3 (Homo sapiens, UniProt P22607); experiment: KINOMEscan; type: binding; conditions: 1 μM
GRK7 = target: T7, GRK7 (Homo sapiens, UniProt Q8WTQ7); experiment: KINOMEscan; type: binding; conditions: 1 μM
T7 construct: purchased Eurofins DiscoverX Corporation

HASPIN = target: T8, HASPIN (Homo sapiens, UniProt Q8TF76); experiment: KINOMEscan; type: binding; conditions: 1 μM
T8 construct: purchased Eurofins DiscoverX Corporation

[8] = target: T9, JAK2(JH1domain-catalytic) (Homo sapiens, UniProt O60674); experiment: KINOMEscan; type: binding; conditions: 1 μM
T9 construct: JAK2(JH1domain-catalytic); purchased Eurofins DiscoverX (KINOMEscan)

KIT(A829P) = target: T10, KIT(A829P) (Homo sapiens, UniProt P10721, A829P); experiment: KINOMEscan; type: binding; conditions: 1 μM
T10 construct: purchased Eurofins DiscoverX (KINOMEscan)

KIT(D816V) = target: T11, KIT(D816V) (Homo sapiens, UniProt P10721, D816V); experiment: KINOMEscan; type: binding; conditions: 1 μM
T11 construct: purchased Eurofins DiscoverX (KINOMEscan)

MAP3K15 = target: T12, MAP3K15 (Homo sapiens, UniProt Q6ZN16); experiment: KINOMEscan; type: binding; conditions: 1 μM
T12 construct: purchased Eurofins DiscoverX Corporation

MAPKAPK2 = target: T13, MAPKAPK2 (Homo sapiens, UniProt P49137); experiment: KINOMEscan; type: binding; conditions: 1 μM
T13 construct: purchased Eurofins DiscoverX Corporation

PIK3C2G = PIK3C2G (Homo sapiens, UniProt O75747); experiment: KINOMEscan; type: binding; conditions: 1 μM
PIK3CA = PIK3CA (Homo sapiens, UniProt P42336); experiment: KINOMEscan; type: binding; conditions: 1 μM
TEC = target: T14, TEC (Homo sapiens, UniProt P42680); experiment: KINOMEscan; type: binding; conditions: 1 μM
T14 construct: purchased Eurofins DiscoverX Corporation

T2 sequence (P00533 669-1210 L858R limits assumed): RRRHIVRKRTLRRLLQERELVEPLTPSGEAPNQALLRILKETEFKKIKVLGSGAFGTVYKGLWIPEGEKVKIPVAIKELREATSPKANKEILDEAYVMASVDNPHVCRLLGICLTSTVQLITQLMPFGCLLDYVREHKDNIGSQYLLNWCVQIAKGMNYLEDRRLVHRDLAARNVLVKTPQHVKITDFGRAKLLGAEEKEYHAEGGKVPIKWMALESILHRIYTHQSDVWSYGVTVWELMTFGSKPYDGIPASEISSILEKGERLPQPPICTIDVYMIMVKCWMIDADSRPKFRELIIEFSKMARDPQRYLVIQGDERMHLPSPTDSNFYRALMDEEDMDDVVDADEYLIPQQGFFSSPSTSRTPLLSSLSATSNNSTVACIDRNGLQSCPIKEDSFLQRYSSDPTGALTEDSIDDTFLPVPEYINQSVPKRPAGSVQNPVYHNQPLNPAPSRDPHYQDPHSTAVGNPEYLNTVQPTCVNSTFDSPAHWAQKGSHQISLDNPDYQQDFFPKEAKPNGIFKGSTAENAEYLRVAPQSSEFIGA
T1 sequence (P00533 669-1210): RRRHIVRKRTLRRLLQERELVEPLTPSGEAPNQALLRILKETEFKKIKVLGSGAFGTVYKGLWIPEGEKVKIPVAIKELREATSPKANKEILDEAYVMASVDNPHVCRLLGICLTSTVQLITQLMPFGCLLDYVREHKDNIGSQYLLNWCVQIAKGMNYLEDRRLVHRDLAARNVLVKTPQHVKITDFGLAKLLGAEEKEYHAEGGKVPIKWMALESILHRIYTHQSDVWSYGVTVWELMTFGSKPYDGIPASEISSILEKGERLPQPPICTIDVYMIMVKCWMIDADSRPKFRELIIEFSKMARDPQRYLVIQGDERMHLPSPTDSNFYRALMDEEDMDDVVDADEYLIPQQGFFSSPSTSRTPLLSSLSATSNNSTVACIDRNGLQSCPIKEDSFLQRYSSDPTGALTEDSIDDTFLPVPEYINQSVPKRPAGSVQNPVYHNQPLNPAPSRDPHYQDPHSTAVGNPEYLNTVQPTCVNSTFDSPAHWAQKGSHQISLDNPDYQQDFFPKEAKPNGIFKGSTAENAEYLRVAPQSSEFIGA
T3 sequence (P00533 669-1210 T790M/L858R): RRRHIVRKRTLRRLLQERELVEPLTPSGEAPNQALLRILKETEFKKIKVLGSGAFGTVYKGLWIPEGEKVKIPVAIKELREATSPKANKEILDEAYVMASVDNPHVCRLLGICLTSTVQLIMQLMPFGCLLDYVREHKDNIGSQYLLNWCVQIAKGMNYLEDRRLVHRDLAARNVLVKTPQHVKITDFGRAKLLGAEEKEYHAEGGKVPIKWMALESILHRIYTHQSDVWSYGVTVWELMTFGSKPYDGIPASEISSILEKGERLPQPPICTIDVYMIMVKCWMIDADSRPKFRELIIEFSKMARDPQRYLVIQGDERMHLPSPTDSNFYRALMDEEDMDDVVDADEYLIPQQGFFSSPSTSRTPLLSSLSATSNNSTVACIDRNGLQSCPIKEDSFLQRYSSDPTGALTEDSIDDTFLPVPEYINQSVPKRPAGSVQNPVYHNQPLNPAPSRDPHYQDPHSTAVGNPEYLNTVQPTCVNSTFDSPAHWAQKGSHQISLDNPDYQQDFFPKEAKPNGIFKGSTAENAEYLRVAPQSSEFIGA
T11 sequence (P10721 26-976 D816V): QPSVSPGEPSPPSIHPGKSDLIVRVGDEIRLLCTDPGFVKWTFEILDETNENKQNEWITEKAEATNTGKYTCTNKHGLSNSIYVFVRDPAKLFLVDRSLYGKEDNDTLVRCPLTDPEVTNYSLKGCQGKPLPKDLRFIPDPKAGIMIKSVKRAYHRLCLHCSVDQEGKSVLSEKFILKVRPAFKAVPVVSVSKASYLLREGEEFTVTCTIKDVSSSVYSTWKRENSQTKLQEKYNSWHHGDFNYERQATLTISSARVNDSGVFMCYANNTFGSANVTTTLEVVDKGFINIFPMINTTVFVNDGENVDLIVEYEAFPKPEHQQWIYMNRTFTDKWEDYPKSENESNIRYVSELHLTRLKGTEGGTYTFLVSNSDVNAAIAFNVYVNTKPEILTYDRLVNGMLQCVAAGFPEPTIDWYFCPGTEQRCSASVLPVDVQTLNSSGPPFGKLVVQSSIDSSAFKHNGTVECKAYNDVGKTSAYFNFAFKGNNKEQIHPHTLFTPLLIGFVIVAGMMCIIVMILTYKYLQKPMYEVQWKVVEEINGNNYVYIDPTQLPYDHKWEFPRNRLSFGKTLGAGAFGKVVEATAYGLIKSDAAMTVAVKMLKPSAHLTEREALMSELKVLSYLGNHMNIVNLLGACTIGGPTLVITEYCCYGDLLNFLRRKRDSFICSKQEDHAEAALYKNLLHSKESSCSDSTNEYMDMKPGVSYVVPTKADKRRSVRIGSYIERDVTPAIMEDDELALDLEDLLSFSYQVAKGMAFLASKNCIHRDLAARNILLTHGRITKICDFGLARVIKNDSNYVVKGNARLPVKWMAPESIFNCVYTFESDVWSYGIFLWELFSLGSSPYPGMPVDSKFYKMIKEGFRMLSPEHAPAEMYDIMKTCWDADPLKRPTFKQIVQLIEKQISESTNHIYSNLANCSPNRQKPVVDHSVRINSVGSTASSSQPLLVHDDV
T8 sequence (Q8TF76 whole entry): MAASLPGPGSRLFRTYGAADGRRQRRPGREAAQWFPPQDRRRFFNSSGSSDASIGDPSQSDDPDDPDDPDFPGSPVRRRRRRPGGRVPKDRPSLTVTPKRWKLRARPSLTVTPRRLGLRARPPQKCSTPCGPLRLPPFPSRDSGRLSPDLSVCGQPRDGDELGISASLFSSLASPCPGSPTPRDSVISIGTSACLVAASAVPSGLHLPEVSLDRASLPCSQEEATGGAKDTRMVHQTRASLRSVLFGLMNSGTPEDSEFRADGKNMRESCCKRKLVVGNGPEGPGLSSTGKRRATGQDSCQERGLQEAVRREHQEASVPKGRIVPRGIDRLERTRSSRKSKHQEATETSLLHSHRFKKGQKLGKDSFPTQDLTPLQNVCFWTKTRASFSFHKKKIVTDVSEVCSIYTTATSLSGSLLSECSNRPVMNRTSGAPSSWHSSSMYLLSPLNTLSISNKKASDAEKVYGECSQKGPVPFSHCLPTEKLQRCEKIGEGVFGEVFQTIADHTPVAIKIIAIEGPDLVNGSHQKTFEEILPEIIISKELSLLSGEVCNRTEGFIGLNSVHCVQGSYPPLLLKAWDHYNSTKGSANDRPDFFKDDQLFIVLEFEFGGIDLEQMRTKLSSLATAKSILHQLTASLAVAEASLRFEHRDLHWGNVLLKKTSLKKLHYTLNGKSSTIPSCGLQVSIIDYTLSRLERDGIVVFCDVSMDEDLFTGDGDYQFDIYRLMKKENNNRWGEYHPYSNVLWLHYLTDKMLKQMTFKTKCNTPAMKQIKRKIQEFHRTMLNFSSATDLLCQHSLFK
T6 sequence (Q9UIK4 whole entry): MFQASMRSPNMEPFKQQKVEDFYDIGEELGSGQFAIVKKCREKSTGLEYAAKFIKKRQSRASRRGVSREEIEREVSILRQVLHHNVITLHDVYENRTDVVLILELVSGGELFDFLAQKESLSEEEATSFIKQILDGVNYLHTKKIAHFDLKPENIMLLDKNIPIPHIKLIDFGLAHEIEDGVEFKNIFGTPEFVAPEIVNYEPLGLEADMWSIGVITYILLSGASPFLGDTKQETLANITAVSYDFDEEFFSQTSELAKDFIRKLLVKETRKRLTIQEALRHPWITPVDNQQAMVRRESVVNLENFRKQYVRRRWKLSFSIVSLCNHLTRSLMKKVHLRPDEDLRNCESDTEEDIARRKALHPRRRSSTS
Sequence of CSK (P41240 whole entry): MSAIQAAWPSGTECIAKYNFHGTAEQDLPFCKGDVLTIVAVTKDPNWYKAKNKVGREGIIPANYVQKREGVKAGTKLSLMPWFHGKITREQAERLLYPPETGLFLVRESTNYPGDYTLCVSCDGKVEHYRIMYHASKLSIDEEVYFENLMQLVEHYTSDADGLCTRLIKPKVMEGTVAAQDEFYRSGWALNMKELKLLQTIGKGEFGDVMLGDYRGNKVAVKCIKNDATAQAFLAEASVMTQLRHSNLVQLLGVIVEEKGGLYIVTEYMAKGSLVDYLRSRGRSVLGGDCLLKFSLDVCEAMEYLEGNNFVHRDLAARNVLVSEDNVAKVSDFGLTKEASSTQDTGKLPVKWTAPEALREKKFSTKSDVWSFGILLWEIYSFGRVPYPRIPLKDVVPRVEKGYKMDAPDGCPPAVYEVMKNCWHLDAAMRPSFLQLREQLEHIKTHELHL
T9 sequence (O60674 849-1124 limits assumed): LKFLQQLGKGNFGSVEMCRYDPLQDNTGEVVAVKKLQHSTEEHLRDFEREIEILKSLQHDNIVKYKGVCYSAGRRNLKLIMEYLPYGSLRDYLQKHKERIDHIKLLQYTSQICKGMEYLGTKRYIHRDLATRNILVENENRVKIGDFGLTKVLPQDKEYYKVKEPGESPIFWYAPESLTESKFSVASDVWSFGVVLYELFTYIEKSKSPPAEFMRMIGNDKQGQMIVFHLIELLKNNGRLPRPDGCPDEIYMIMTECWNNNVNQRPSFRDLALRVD
Sequence of ACVR2B (Q13705 19-512): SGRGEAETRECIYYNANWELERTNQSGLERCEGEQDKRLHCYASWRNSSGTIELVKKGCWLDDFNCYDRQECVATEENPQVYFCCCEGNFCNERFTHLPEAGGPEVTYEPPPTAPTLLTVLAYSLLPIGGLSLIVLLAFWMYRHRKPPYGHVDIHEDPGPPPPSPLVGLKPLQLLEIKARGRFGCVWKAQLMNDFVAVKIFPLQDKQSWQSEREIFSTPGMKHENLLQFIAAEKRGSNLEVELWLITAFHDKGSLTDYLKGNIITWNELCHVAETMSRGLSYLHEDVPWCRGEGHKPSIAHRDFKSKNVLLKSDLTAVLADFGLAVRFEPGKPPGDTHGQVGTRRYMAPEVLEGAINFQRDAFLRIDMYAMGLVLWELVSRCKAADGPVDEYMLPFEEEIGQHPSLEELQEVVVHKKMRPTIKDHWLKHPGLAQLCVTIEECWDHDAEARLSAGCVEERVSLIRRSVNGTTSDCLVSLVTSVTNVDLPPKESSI
T10 sequence (P10721 26-976 A829P): as the sequence (P10721 26-976 D816V) above, with V791D, A804P counted along it

C=CC(=O)Nc1ccc(OC)c(Nc2cc(-c3[nH]c(CC)nc3-c3cccc(NC(=O)c4cccc5c4NC(=O)c4ccccc4N5)c3)ccn2)c1 [Compound 4]
Ki [1]: 1200 ± 40 nM | kinact [1]: 0.003 s⁻¹ | kinact/KI [1]: 2500 ± 30 M⁻¹ s⁻¹ | Ki [2]: 610 ± 30 nM | kinact [2]: 0.00867 s⁻¹ | kinact/KI [2]: 14100 ± 300 M⁻¹ s⁻¹ | Ki [3]: 1600 ± 100 nM | kinact [3]: 0.00167 s⁻¹ | kinact/KI [3]: 1070 ± 40 M⁻¹ s⁻¹ | less potent than AZD9291 ([4]; H1975): ~ 60 fold | antiproliferative active concentration ([4]; H1975, text): 100 to 500 nM | less potent than AZD9291 ([5]; HCC827): ~ 60 fold | antiproliferative active concentration ([5]; HCC827, text): 100 to 500 nM | POC [6]: 37% of control | POC [7]: 67% of control | POC (ACVR2B): 72% of control | POC (AXL): 98% of control | POC (CDK5): 100% of control | POC (CSK): 14% of control | POC (DAPK2): 100% of control | POC (FES): 28% of control | POC (FGFR3): 94% of control | POC (GRK7): 99% of control | POC (HASPIN): 100% of control | POC [8]: 86% of control | POC (KIT(A829P)): 56% of control | POC (KIT(D816V)): 94% of control | POC (MAP3K15): 74% of control | POC (MAPKAPK2): 100% of control | POC (PIK3C2G): 50% of control | POC (PIK3CA): 70% of control | POC (TEC): 45% of control
